Experimental data from PMC7383852 (Annals of Neurology, 2020).

Key:
[1] = tested on: participants with mild to moderate dementia due to Alzheimer's disease; assay: MMSE; type: in vivo, human; conditions: nilotinib-treated group, 12 months
[2] = tested on: Abelson; conditions: read-out: Abelson inhibition IC50; cited from earlier work
[3] = tested on: CSF DOPAC and HVA; assay: CSF dopamine metabolites DOPAC and HVA by UHPLC-MS/MS; type: in vivo, human
[4] = tested on: participants with mild to moderate dementia due to Alzheimer's disease; assay: Adverse events and serious adverse events, phase 2 trial
[5] = tested on: participants with mild to moderate dementia due to Alzheimer's disease; assay: CDR-SOB; type: in vivo, human; conditions: nilotinib-treated group
[6] = tested on: DDR1; conditions: read-out: DDR1 inhibition IC50; 21 (b2); cited from earlier work
[7] = tested on: participants with mild to moderate dementia due to Alzheimer's disease; assay: ADCS-ADL; type: in vivo, human; conditions: nilotinib group, 12 months
[8] = tested on: patients with CML; conditions: studies of 5,661 patients; ref nilotinib prescription information; cited from earlier work
[9] = Nilotinib in plasma and CSF by mass spectrometry; conditions: human, in vivo
[10] = Electrocardiogram QTc; conditions: nilotinib group versus placebo group

For `Cc1cn(-c2cc(NC(=O)c3ccc(C)c(Nc4nccc(-c5cccnc5)n4)c3)cc(C(F)(F)F)c2)cn1` [nilotinib, Nilotinib], the MMSE annual decline [1] is given as −2.50 patients, the IC50 [2] is given as > 20 nM and the “CSF HVA change in the nilotinib group” value ([3]; 6 months) is given as -71.9 nM. For the same compound, the “CSF HVA change, nilotinib compared to placebo” value ([3]; 6 months) was -61.5 nM, the “CSF DOPAC change in the nilotinib group” value ([3]; 12 months) was -0.3 nM and the “CSF HVA change in the nilotinib group” value ([3]; 12 months) was -47.4 nM. The “CSF HVA change, nilotinib compared to placebo” value ([3]; 12 months) was -37.1 nM, the Mood swings ([4]; between 6 and 12 months, 300 mg) was 70.6% and the “Mood swings or behavioral changes” value ([4]; between baseline and 6 months, 150 mg) was “No mood swings or behavioral changes were reported”. The “No. of SAEs/no. of patients (%)” value ([4]; n = 17) was 0, the “SAE Bronchitis” value ([4]; n = 17) was 0 No. of events (%) and the “SAE Hypotension” value ([4]; n = 17) was 0 No. of events (%). For the same compound, the “SAE Psychosis” value ([4]; n = 17) was 0 No. of events (%), the “SAE Rhabdomyolysis” value ([4]; n = 17) was 0 No. of events (%) and the “SAE Vertigo” value ([4]; n = 17) was 0 No. of events (%). It also gave an Agitation ([4]; nilotinib group) of 52.9%, a Diarrhea ([4]; nilotinib group) of 41.2% and an Irritability ([4]; nilotinib group) of 35.2%. For the same compound, the Pain ([4]; nilotinib group) was 41.2%, the “Total number of SAEs” value ([4]; nilotinib group) was 0% and the “Number of AEs” value ([4]; nilotinib group, 12 months) was 122. The “Hypokalemia, hypomagnesemia, long QT syndrome” value ([4]; this study) was “no hypokalemia, hypomagnesemia, or long QT syndrome were observed”, the CDR-SOB decline ([5]; 6 months) was 1.5 points and the CDR-SOB decline ([5]; 12 months) was 2.5 points. For the same compound, the IC50 [6] was […], the ADCS-ADL decline [7] was −4.5 points and the “Sudden death, share of patients with CML” value [8] was 0.3%. For the same compound, the AUC ([9]; 150 mg, CSF, 150 mg daily) was 7.59 ng·h/mL, the AUC ([9]; 150 mg, Plasma, 150 mg daily) was 2510 ng·h/mL and the Cmax ([9]; 150 mg, CSF, 150 mg daily) was 3.46 nM. For the same compound, the Cmax ([9]; 150 mg, Plasma, 150 mg daily) was 1100 nM, the Tmax ([9]; 150 mg, CSF, 150 mg daily) was 3 h and the Tmax ([9]; 150 mg, Plasma, 150 mg daily) was 4 h. For the same compound, the AUC ([9]; 300 mg, CSF, 300 mg daily) was 11.3 ng·h/mL, the AUC ([9]; 300 mg, Plasma, 300 mg daily) was 3380 ng·h/mL and the Cmax ([9]; 300 mg, CSF, 300 mg daily) was 4.7 nM. The Cmax ([9]; 300 mg, Plasma, 300 mg daily) was 1410 nM and the QTc prolongation [10] was “No QTc prolongation was observed”.
